{
  "source": "patent US6391549B1",
  "about": "“Monitoring gene expression” (Ramont University Authority for Applied Research & …, priority 1999, dated 2002)",
  "key": {"[1]": {"system": "heavy metal responsive promoter-lacZ fusion in E coli K12 MC4100", "details": "HgCl2 10, 50, 100 and 500 PPM added to sea-water, FIG. 7", "procedure": "Electrochemical measurements was performed using a disposable three-electrode cell made of polystyrene tubes and based on a screen-printed electrode (total volume of 0.3 ml). The assay was performed directly in the electrochemical cells that was vibrated to achieve mixing. This system allows simultaneous measurements of eight samples using a potentiostat connected to 8 channel multiplexer. The electrical current, resulting in all 8 cultures, from the activity of β-galactosidase, was visualized in real time on the computer screen. The on-line monitoring procedure was performed as followed:\nThe game procedure as described on Example 4 was used to monitor mercury in water and sea water samples."}, "β-galactosidase": {"molecular_target": "β-galactosidase (Escherichia coli, UniProt P00722)", "sequence (P00722 2-1024 limits assumed)": "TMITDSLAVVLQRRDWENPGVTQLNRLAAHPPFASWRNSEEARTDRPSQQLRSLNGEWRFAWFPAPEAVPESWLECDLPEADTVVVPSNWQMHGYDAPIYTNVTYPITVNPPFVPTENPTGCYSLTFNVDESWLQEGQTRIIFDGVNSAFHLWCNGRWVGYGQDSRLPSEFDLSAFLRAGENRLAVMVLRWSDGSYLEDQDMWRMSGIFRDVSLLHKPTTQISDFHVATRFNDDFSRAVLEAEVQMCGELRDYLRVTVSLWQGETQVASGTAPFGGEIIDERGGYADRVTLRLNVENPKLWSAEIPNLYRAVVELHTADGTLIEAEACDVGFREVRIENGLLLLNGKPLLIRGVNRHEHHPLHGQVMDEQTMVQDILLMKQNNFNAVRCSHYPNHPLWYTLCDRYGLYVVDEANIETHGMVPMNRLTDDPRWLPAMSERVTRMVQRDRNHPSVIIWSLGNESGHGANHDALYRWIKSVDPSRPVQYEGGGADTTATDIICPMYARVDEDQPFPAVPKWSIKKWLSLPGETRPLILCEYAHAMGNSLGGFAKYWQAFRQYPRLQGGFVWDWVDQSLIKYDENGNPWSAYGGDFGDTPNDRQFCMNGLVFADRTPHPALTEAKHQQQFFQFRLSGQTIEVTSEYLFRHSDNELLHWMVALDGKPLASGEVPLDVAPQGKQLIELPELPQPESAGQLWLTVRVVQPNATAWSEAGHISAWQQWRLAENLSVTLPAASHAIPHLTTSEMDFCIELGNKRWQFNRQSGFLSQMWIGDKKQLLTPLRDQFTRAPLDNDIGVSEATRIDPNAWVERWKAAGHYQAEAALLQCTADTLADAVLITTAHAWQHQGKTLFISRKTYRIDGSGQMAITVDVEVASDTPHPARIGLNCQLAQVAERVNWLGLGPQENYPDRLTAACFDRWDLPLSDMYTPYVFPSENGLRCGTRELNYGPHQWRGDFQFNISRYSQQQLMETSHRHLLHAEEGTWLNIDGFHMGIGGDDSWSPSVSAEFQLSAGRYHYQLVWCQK", "details": "purified enzyme, PAPG substrate, 220 mV", "procedure": "The amperometric assay. Electrochemical measurements were performed using a disposable three-electrode cell, based on a screen-printed electrode (total volume of 0.3 ml). […] Graphite ink was used as the counter electrode and Ag/AgCl ink were the reference electrodes. Disposable graphite electrodes in cylindrical form (made from pencil leads, HB 0.9 mm) were used as the working electrodes. The assay was performed directly in the electrochemical cells which were vibrated to achieve mixing. The same screen-printed electrodes and graphite working electrode were also used for direct measurements in cultures. In this case the electrodes were placed inside the Erlenmeyer flask as shown in FIG. 1 and mixing was achieved by bubbling air. The graphite electrode was held at 220 mV versus the reference electrode and the substrate PAPG concentration was 0.4 mg/ml.\nThe electrochemical measurements were performed using a PAR VersaStat potentiostat connected to 8 channel PAR 314 Model multiplexer (EG&C Princeton Applied Research, Princeton, N.J.). This system allows simultaneous measurements of eight samples with disposable electrochemical cells. The measurements were controlled by a LAbVIEW-based software using a Windows 95 operating system. […]"}, "[2]": {"system": "E. coli K10 cultures (lacZ expression)", "assay": "on-line amperometric monitoring of lacZ product β-galactosidase in intact bacteria after IPTG induction", "format": "cell-based", "experimental": "Bacterial strains and growth. E. coli K-12 strain K10 (Hfr, tonA22, ompF626, relA1, pit10, spoT1, T2^R CGSC [Coli Genetic Stot Center, New Haven, Conn.] 4234) was from the lab collection, Strains E. coli RO151 (MC4100 φ(csi-5::lacZ) and E. coli RH99 (RO151 rpoS359::Tn10) were described before (Weichart et. al., 1993). All cultures were grown aerobically at 37° C. with vigorous shaking in LB media (Miler, 1992), supplemented, when required, with 5 μg/ml of tetracycline or 25 μg/ml of kanamycin.\nAn on-line electroanalytical assay for β-galactosidase was used where the enzymatic activity was determined following induction with IPTG. Increasing concentrations of the inducer were added to cultures of E. coli K10 (Annette & Anthony, 1987) and the current signal was monitored on-line in all the cultures simultaneously (FIG. 3A)."}, "[3]": {"system": "E. coil k-12 7118 carrying pUC-PhoA plasmid (lacZ promoter-phoA)", "assay": "on-line amperometric monitoring of phoA product alkaline phosphatase under lacZ promoter in intact bacteria", "format": "cell-based, E. coli", "details": "IPTG 0, 0.1 mM and 1 mM, FIG. 10", "excerpt": "The expression of the enzyme AP was done by constructing a multicopy plasmid. For the construction of the plasmid, we coupled a promoter-less phoA gene to the promoter of the lacZ gene. The use of multicopy plasmid as a vector for induciable genes requires a strong repressing system to prevent constitutive expression. Therefore we used a plasmid that cares the lacI^q gene coding for a lacZ strong repressor. The plasmid was designed to generate the correct fusion between the lacZ promoter and the phoA gene. The bacteria carrying this plasmid can be immobilized and used to monitor AP by electrochemical measurements of it's activity. After the construction of the plasmid, we measured AP activity of a cell suspension in response to the appearance of IPTG.\nStrain E. coil k-12 7118[F′ lacI^qΔ(lacZ)M15 proA+B+/Δ(lac-proAB) thi supE]was used for all cloning procedures, plasmid propagation and production. AP production of cells carrying the pUC-PhoA plasmid was measured on-line by the electroanalytical technique that was used for β-galactosidase as described in example 2. As shown in FIG. 10 the enzymatic activity was determined following induction with elevated concentrations of IPTG (0, 1 mM and 0.1 mM)."}, "[4]": {"system": "heavy metal responsive promoter-lacZ fusion in E coli K12 MC4100", "assay": "on-line amperometric monitoring of heavy metals with bacteria carrying heavy metal responsive promoter fused to lacZ", "format": "cell-based", "details": "CdCl2 5, 10 and 50 PPM added to culture, FIG. 5", "experimental": "An on-line electroanlytical assays for β-galactosidase was used to monitor on-line the presence of heavy metals. The expression of the reporter gene β-galactosidase that was fused to a heavy metal responsive gene was proportional to the heavy metal concentration. We were able to monitor eight different samples simultaneously using a disposable electrodes.\n(§1) The on-line monitoring procedure was performed as followed:\na. The bacteria culture was grown on LB medium to a density of 40 K.U.\nb. The culture was added to the multiple-cell device followed by the addition of the β-galactosidase substrate p-aminophenyl-b-D-galactopyranoside (PAPG).\nc. A potential of 220 mV Vs Ag/AgCl reference electrode was applied by the electrochemical measurement system and electroanalytical assay for β-galactosidase was carried out as described in Example 4.\nThe current signal was monitored simultaneously in all the cultures."}, "[5]": {"system": "heavy metal responsive promoter-lacZ fusion in E coli K12 MC4100", "assay": "on-line monitoring of cadmium in soil samples with the reporter bacteria", "format": "cell-based", "experimental": "as §1\nThe same assay procedure was used to detect cadmium in soil samples. The soil was added directly to the screen-printed based electrochemical cells containing the bacteria culture as described above. Eight soil samples were monitored simultaneously by the system. The results as visualized on the computer screen are shown on FIG. 6A., Two duplicates of soil sample containing 3.8 PPM cadmium (measured by the Atomic absorption method) were compared with two duplicates of clean soil samples."}},
  "data": [
    {"compound": "HgCl2", "values": [
      {"measurement": "current signal (reporter induction)", "setting": "[1]", "result": "proportional to the mercury concentrations"}
    ]},
    {"compound": "β-D-galactoside galatohydrolase; EC 3.2.1.23 [β-galactosidase]", "values": [
      {"measurement": "detection limit", "setting": "β-galactosidase", "result": 1, "unit": "unit/ml"}
    ]},
    {"compound": "CC(C)S[C@@H]1O[C@H](CO)[C@H](O)[C@H](O)[C@H]1O", "note": "[IPTG, isopropyl-β-D-thiogalactopyranoside]", "values": [
      {"measurement": "lowest IPTG concentration from which the slope was proportional", "setting": "[2]; E. coli K10, FIG. 3B", "result": "≥ 0.5", "unit": "µM"},
      {"measurement": "slope of the current signals with time (β-galactosidase induction)", "setting": "[2]; E. coli K10, IPTG 0.5-50 μM, FIG. 3B", "result": "proportional to the concentrations of IPTG added"},
      {"measurement": "current signals (alkaline phosphatase activity after induction)", "setting": "[3]", "result": "proportional to IPTG concentations"}
    ]},
    {"compound": "[Cl][Cd][Cl]", "note": "[cadmium, CdCl2]", "values": [
      {"measurement": "slope of the current signals with time (reporter induction)", "setting": "[4]", "result": "proportional to the concentrations of cadmium added"},
      {"measurement": "current signals versus clean soil samples", "setting": "[5]; soil sample containing 3.8 PPM cadmium, FIG. 6", "result": "substantially higher"},
      {"measurement": "lowest cadmium concentration detected in soil samples", "setting": "[5]; soil samples, average of several experiments, FIG. 6B", "result": 0.5, "unit": "PPM"}
    ]}
  ]
}
